Calls of active or inactive are those of the source. The rule behind the calls is not given here.
Experiments:
[1] = Inhibition of cell proliferation in ETV6-NTRK3 fusion positive human MO-91 cells incubated for 72 hrs by DAPI staining based analysis; format: functional; conditions: MO-91, 72 h
MCF7 = experiment: Inhibition of cell proliferation in human MCF7 cells upto 10 umol/L incubated for 72 hrs by DAPI staining based analysis; format: functional; conditions: dose <= 10.0 µmol/L
SJRH30 = experiment: Inhibition of cell proliferation in human SJRH30 cells upto 10 umol/L incubated for 72 hrs by DAPI staining based analysis; format: functional; conditions: dose <= 10.0 µmol/L
DMS-53 = experiment: Inhibition of cell proliferation in human DMS-53 cells upto 10 umol/L incubated for 72 hrs by DAPI staining based analysis; format: functional; conditions: dose <= 10.0 µmol/L
NCI-H292 = experiment: Inhibition of cell proliferation in human NCI-H292 cells upto 10 umol/L incubated for 72 hrs by DAPI staining based analysis; format: functional; conditions: dose <= 10.0 µmol/L
BT-549 = experiment: Inhibition of cell proliferation in human BT-549 cells upto 10 umol/L incubated for 72 hrs by DAPI staining based analysis; format: functional; conditions: dose <= 10.0 µmol/L
Hs-578T = experiment: Inhibition of cell proliferation in human Hs-578T cells upto 10 umol/L incubated for 72 hrs by DAPI staining based analysis; format: functional; conditions: dose <= 10.0 µmol/L
T47D = experiment: Inhibition of cell proliferation in human T47D cells upto 10 umol/L incubated for 72 hrs by DAPI staining based analysis; format: functional; conditions: dose <= 10.0 µmol/L
C32 = experiment: Inhibition of cell proliferation in human C32 cells upto 10 umol/L incubated for 72 hrs by DAPI staining based analysis; format: functional; conditions: dose <= 10.0 µmol/L
Rec1 = experiment: Inhibition of cell proliferation in human REC1 cells upto 10 umol/L incubated for 72 hrs by DAPI staining based analysis; format: functional; conditions: dose <= 10.0 µmol/L
Caov-3 cell line = experiment: Inhibition of cell proliferation in human Caov-3 cells upto 10 umol/L incubated for 72 hrs by DAPI staining based analysis; format: functional; conditions: dose <= 10.0 µmol/L
KG-1 = experiment: Inhibition of cell proliferation in human KG-1 cells upto 10 umol/L incubated for 72 hrs by DAPI staining based analysis; format: functional; conditions: dose <= 10.0 µmol/L
KPL-1 = experiment: Inhibition of cell proliferation in human KPL-1 cells upto 10 umol/L incubated for 72 hrs by DAPI staining based analysis; format: functional; conditions: dose <= 10.0 µmol/L
[2] = Cmax in pediatric patient with recurrent ETV6-NTRK3-rearranged infantile fibrosarcoma at 20 mg administered twice a day as liquid formulation for 1 day by LC-MS/MS analysis; format: ADME; conditions: human, in vivo
[3] = Cmin in adult patient with recurrent LMNA-NTRK1 rearranged colorectal cancer at 100 mg administered twice a day as powder-in-capsule or liquid formulation for 15 day and measured 10 hrs post dose by LC-MS/MS analysis; format: ADME; conditions: human, in vivo, po, read-out: Cmin
[4] = molecular target: Insulin receptor (Homo sapiens) (UniProt P06213); experiment: Inhibition of IR (unknown origin) at 1 uM in presence of ATP relative to control; values are per cent of control
[5] = molecular target: Tyrosine-protein kinase ITK/TSK (Homo sapiens) (UniProt Q08881); experiment: Inhibition of ITK (unknown origin) at 1 uM in presence of ATP relative to control; values are per cent of control
[6] = molecular target: RAC-beta serine/threonine-protein kinase (Homo sapiens) (UniProt P31751); experiment: Inhibition of AKT2 (unknown origin) at 1 uM in presence of ATP relative to control; values are per cent of control
Sequence of RAC-beta serine/threonine-protein kinase (Homo sapiens) (P31751 whole entry): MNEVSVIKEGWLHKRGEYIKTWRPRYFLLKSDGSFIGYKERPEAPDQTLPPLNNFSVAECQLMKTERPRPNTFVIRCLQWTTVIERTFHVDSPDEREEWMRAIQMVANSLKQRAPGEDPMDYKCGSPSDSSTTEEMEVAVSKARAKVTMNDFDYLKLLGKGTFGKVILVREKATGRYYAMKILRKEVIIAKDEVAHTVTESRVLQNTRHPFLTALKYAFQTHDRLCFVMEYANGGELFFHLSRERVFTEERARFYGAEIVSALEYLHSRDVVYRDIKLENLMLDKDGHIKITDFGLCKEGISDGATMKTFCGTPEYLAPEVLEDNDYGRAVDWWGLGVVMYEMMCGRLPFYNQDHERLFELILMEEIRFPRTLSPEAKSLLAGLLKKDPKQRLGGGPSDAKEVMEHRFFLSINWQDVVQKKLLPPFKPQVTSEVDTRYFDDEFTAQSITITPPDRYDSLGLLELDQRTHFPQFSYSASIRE

[7] = molecular target: G protein-coupled receptor kinase 6 (Homo sapiens) (UniProt P43250); experiment: Inhibition of GRK6 (unknown origin) at 1 uM in presence of ATP relative to control; values are per cent of control
[8] = molecular target: Ribosomal protein S6 kinase alpha-4 (Homo sapiens) (UniProt O75676); experiment: Inhibition of MSK2 (unknown origin) at 1 uM in presence of ATP relative to control; values are per cent of control
[9] = molecular target: Serine/threonine-protein kinase Nek3 (Homo sapiens) (UniProt P51956); experiment: Inhibition of NEK3 (unknown origin) at 1 uM in presence of ATP relative to control; values are per cent of control
[10] = molecular target: Serine/threonine-protein kinase PLK1 (Homo sapiens) (UniProt P53350); experiment: Inhibition of Plk1 (unknown origin) at 1 uM in presence of ATP relative to control; values are per cent of control
Sequence of Serine/threonine-protein kinase PLK1 (Homo sapiens) (P53350 whole entry): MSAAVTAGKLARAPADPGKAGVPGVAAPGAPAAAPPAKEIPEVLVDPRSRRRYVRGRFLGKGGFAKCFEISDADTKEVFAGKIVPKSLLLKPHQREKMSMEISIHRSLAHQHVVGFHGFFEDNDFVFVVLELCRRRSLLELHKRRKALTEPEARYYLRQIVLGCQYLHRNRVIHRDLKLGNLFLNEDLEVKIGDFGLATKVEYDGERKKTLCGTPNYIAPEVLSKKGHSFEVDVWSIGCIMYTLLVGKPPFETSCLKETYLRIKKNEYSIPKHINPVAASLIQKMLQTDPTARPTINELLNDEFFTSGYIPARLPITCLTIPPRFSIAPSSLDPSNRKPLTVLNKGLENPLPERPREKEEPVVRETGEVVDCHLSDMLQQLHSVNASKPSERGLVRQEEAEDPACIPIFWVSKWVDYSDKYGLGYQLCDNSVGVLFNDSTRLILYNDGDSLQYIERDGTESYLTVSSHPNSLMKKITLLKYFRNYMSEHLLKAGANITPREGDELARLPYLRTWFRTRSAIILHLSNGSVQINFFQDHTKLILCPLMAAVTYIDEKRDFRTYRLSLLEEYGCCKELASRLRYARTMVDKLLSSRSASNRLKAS

[11] = molecular target: Aurora kinase A (Homo sapiens) (UniProt O14965); experiment: Inhibition of AURKA (unknown origin) at 1 uM in presence of ATP relative to control; values are per cent of control
Sequence of Aurora kinase A (Homo sapiens) (O14965 whole entry): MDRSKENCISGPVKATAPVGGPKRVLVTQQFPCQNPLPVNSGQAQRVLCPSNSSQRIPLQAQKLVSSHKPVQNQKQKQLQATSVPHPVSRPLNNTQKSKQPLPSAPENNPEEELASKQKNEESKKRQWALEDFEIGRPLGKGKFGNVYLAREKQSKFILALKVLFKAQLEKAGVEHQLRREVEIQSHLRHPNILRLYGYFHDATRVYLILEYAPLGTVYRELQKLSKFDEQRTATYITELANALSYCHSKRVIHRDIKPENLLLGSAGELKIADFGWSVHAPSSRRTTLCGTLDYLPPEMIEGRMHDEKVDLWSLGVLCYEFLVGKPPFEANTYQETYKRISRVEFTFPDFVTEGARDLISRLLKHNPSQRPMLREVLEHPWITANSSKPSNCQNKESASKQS

[12] = molecular target: Ephrin type-A receptor 7 (Homo sapiens) (UniProt Q15375); experiment: Inhibition of EphA7 (unknown origin) at 1 uM in presence of ATP relative to control; values are per cent of control
Sequence of Ephrin type-A receptor 7 (Homo sapiens) (Q15375 28-998 limits assumed): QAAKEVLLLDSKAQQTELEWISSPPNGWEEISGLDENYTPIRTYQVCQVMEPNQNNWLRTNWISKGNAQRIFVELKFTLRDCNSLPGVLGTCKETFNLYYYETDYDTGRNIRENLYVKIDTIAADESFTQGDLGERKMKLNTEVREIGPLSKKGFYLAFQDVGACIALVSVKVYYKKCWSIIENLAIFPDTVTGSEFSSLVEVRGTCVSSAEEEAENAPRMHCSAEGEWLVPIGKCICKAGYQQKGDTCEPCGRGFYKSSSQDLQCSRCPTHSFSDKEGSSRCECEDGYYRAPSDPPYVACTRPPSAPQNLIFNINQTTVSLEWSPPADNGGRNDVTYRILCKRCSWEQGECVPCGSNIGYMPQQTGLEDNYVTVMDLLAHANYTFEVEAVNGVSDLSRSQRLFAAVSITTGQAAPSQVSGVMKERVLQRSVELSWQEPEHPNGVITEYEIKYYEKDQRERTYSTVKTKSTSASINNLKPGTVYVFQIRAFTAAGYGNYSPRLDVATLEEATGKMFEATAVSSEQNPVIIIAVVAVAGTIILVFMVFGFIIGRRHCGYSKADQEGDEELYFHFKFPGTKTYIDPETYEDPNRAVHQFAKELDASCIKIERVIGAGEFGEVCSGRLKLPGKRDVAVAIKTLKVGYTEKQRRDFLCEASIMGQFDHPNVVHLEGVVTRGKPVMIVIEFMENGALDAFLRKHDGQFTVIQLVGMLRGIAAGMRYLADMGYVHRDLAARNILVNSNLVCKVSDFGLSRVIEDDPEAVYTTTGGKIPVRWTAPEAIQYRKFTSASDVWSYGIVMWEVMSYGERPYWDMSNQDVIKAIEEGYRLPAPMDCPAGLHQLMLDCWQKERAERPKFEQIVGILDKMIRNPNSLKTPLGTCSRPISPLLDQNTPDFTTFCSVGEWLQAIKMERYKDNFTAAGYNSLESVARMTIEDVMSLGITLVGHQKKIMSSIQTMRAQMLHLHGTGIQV

[13] = molecular target: Calcium/calmodulin-dependent protein kinase type II subunit delta (Homo sapiens) (UniProt Q13557); experiment: Inhibition of CAMK2d (unknown origin) at 1 uM in presence of ATP relative to control; values are per cent of control
[14] = molecular target: Protein kinase C zeta type (Homo sapiens) (UniProt Q05513); experiment: Inhibition of PKCzeta (unknown origin) at 1 uM in presence of ATP relative to control; values are per cent of control
Sequence of Protein kinase C zeta type (Homo sapiens) (Q05513 whole entry, canonical isoform): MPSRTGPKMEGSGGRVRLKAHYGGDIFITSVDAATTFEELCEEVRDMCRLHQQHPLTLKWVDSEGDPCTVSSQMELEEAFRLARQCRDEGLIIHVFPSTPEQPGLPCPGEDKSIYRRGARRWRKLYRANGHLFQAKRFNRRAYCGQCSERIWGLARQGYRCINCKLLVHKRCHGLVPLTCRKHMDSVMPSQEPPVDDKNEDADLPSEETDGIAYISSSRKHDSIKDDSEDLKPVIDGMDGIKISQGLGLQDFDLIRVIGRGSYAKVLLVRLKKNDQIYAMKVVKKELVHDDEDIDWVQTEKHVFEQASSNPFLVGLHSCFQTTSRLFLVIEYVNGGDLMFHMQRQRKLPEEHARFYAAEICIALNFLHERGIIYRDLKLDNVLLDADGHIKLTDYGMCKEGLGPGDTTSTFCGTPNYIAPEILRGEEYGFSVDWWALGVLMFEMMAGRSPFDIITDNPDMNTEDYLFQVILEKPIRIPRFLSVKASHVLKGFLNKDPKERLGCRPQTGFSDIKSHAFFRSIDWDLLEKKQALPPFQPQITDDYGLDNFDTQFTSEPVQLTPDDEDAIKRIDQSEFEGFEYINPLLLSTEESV

[15] = molecular target: Phosphorylase b kinase gamma catalytic chain, liver/testis isoform (Homo sapiens) (UniProt P15735); experiment: Inhibition of PhKgamma2 (unknown origin) at 1 uM in presence of ATP relative to control; values are per cent of control
Sequence of Phosphorylase b kinase gamma catalytic chain, liver/testis isoform (Homo sapiens) (P15735 whole entry, canonical isoform): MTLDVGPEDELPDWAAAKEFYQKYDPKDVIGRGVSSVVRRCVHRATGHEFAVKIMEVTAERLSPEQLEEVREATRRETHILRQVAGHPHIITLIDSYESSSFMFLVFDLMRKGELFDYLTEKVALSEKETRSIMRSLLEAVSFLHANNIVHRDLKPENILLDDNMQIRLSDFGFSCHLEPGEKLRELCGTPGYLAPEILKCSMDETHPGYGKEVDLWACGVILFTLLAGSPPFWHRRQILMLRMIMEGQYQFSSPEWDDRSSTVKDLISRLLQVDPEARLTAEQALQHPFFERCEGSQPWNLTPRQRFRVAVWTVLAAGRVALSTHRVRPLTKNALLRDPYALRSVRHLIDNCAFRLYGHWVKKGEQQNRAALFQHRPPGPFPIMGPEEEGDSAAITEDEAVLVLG

[16] = molecular target: Casein kinase II subunit alpha' (Homo sapiens) (UniProt P19784); experiment: Inhibition of CK2alpha2 (unknown origin) at 1 uM in presence of ATP relative to control; values are per cent of control
Sequence of Casein kinase II subunit alpha' (Homo sapiens) (P19784 whole entry, looked up): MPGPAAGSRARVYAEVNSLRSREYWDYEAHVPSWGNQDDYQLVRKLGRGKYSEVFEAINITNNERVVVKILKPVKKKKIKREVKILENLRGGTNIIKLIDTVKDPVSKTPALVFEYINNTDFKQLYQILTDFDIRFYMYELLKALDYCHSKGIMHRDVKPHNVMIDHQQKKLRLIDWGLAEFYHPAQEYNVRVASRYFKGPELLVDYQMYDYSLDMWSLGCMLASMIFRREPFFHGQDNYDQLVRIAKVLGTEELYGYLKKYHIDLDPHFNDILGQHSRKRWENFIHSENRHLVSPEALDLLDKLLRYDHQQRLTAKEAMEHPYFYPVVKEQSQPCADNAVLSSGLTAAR

[17] = molecular target: Platelet-derived growth factor receptor beta (Homo sapiens) (UniProt P09619); experiment: Inhibition of PDGFRbeta (unknown origin) at 1 uM in presence of ATP relative to control; values are per cent of control
Sequence of Platelet-derived growth factor receptor beta (Homo sapiens) (P09619 whole entry): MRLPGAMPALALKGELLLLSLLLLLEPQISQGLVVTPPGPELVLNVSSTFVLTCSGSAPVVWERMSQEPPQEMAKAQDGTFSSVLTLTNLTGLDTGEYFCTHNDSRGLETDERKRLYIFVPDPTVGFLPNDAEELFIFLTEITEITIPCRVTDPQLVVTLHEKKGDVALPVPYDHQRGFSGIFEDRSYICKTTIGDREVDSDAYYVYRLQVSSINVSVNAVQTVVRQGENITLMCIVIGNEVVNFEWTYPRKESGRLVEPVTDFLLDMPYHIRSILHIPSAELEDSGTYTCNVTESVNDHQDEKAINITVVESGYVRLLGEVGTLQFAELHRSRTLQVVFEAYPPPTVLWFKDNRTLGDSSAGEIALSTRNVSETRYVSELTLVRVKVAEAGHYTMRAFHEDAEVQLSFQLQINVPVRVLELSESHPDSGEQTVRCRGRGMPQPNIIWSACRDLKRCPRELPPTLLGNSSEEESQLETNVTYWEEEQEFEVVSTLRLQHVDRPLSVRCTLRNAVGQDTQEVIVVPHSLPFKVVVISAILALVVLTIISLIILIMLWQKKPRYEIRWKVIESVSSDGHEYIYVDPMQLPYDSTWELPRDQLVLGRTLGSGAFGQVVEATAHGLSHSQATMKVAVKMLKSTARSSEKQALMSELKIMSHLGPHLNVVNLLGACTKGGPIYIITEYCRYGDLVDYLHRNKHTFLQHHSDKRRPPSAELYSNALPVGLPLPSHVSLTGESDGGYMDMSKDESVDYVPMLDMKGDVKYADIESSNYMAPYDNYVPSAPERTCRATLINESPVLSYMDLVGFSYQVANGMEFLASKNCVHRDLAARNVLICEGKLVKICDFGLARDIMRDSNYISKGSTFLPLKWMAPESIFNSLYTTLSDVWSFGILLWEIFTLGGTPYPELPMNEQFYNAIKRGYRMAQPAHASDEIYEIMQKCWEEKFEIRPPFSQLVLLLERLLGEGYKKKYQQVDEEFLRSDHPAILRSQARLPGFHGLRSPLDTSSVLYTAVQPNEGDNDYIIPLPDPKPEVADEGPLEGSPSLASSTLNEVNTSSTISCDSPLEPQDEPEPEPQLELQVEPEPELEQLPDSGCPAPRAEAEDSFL

[18] = molecular target: Cyclin-dependent kinase 1/cyclin B1 (Homo sapiens) (UniProt P06493+P14635); experiment: Inhibition of CDK1/cyclinB (unknown origin) at 1 uM in presence of ATP relative to control; values are per cent of control
[19] = molecular target: Cyclin-dependent kinase 2/cyclin E1 (Homo sapiens) (UniProt P24864+P24941); experiment: Inhibition of CDK2/cyclinE (unknown origin) at 1 uM in presence of ATP relative to control; values are per cent of control

Cmax [2]: 143 ng/mL | concentration at 370 h [3]: 7.78 ng/mL | residual activity [4]: 92% | residual activity [5]: 90.5% | residual activity [6]: 121% | residual activity [7]: 106% | residual activity [8]: 115% | residual activity [9]: 110% | residual activity [10]: 104% | residual activity [11]: 97% | residual activity [12]: 103% | residual activity [13]: 100% | residual activity [14]: 106% | residual activity [15]: 104% | residual activity [16]: 99% | residual activity [17]: 112% | residual activity [18]: 102% | residual activity [19]: 106%
SMILES: C[C@@H]1CCc2ncc(F)cc2[C@H]2CCCN2c2ccn3ncc(c3n2)C(=O)N1 [SELITRECTINIB]
IC50 [1]: ≤ 5 nM | inhibition (MCF7): inactive | inhibition (SJRH30): inactive | inhibition (DMS-53): inactive | inhibition (NCI-H292): inactive | inhibition (BT-549): inactive | inhibition (Hs-578T): inactive | inhibition (T47D): inactive | inhibition (C32): inactive | inhibition (Rec1): inactive | inhibition (Caov-3 cell line): inactive | inhibition (KG-1): inactive | inhibition (KPL-1): inactive
